Assay [1] addresses T1, RORγt (Homo sapiens, UniProt P51449).
T1 sequence (P51449 1-497 isoform P51449-2): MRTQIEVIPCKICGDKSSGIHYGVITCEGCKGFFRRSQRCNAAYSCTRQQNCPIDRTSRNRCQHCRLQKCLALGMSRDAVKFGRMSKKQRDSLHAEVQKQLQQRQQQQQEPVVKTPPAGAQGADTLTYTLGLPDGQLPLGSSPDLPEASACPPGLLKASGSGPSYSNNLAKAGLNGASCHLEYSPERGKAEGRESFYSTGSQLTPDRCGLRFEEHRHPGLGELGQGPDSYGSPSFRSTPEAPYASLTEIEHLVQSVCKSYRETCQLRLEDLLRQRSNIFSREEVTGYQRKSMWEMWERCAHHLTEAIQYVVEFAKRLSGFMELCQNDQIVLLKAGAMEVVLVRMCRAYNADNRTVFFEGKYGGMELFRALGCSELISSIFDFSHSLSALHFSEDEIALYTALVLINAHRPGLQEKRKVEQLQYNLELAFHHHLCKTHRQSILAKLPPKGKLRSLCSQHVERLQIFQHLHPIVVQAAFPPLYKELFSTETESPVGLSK
As to the kind of experiment: RORγt binding test (TR-FRET, fluorescent-labeled cholesterol). The note with it: read-out: binding inhibitory rate (%) of fluorescent-labeled cholesterol to RORγt at test compound 1 μM. As for the experimental part: The binding activity of the test compound to RORγt was measured by a time resolved fluorescence resonance energy transfer method (TR-FRET) utilizing histidine-tagged RORγt, fluorescent-labeled cholesterol (BODIPY-cholesterol, AVIVA), and terbium-labeled anti-histidine tag antibody (Invitrogen). First, a test compound diluted with an assay buffer (20 mM Tris-HCl (pH 7.5), 100 mM NaCl, 1 mM DTT, 0.1% BSA) was added to a 384 well plate by 3 μL. Then, RORγt diluted with an assay buffer to 240 nM was added by 3 μL, after which fluorescent-labeled cholesterol diluted with the assay buffer to 12 μM was added by 3 μL, and the mixture was stood at room temperature for 20 min. Thereafter, a terbium-labeled anti-histidine tag antibody diluted with the assay buffer to 8 nM was added by 3 μL. The mixture was stood at room temperature for 20 min, and fluorescence intensity (excitation wavelength 320 nm, fluorescence wavelength 520 nm, delay time 100 microseconds) was measured by Envision (PerkinElmer).
(In general: In TR-FRET formats the signal depends on donor and acceptor labels being close together.)

In assay [2] the target is T1, RORγt. Nature of the assay: Cofactor recruitment test (Alpha Screen, biotinylated SRC-1 peptide). Format: biochemical. The note with it: read-out: signal value inhibitory rate (%) at test compound 1 μM. As for the experimental part: Cofactor Recruitment Test
Cofactor recruitment test was performed by Alpha Screen (Histidine Detection Kit, PerkinElmer) method. First, a test compound was diluted with an assay buffer (50 mM Tris-HCl (pH 7.5), 50 mM KCl, 1 mM DTT, 0.1% BSA) and added to a 384 well plate by 5 μL. […] The mixture was stood in a dark place for 1 hr, and the signal value was measured by Envision (PerkinElmer).

Assay [3] concerns the target T1, RORγt. Nature of the assay: Jurkat reporter test (human IL-17 ROR response element luciferase reporter). Format: cell-based. The note with it: read-out: luminescence level inhibitory rate (%) at test compound 3 μM. As for the experimental part:
The Jurkat cells used for the reporter test were cultured in a culture medium (RPMI (Invitrogen), 10% FCS (AusGeneX), 100 U/mL penicillin, 100 μg/mL streptomycin). On the day of the test, 4×10^7 cells were recovered by a centrifugal operation (1000 rpm, 5 min.) and suspended in PBS (phosphate buffered saline) (Invitrogen). Thereafter, the cells were recovered again by a centrifugal operation, and suspended in 2 mL of R buffer (NEON transfection kit, Invitrogen). […] Gene transfer was performed by Electroporation apparatus (NEON, Invitrogen) under the conditions of pulse voltage 1350 V, interval 10 milliseconds, number of times 3. The cells after gene transfer were suspended in 40 mL of a reaction medium (RPMI, 10% Lipid reduced FCS (HyClone), 10 mM HEPES (pH 7.5), 100 U/mL penicillin, 100 μg/mL streptomycin, 5 μM lovastatin), and plated in a 96 well plate by 90 μL. A test compound diluted with the reaction medium was added by 10 μL, and the cells were cultured overnight in an incubator. Bright-Glo (Promega) was added by 100 μL, and the mixture was stirred at room temperature for 10 min, and the luminescence level was measured by Envision (PerkinElmer).
Background: Reporter assays use an easily measured gene product as a stand-in for the process of interest.

The source of these data is patent US11851449B2, “Heterocyclic amide compounds having an RORvt inhibitory action” (TAKEDA PHARMACEUTICAL COMPANY LIMITED, priority 2013, dated 2023).

Counter-ions that a name gives are not always drawn. Like-named read-outs stand apart in the source and are kept apart here.

Consider `COCc1ccc(C(NC(=O)C2CNC(=O)C2)C(=O)Nc2ccc([Si](C)(C)C)c(C#N)c2)cc1` (stereo not drawn) [Example 26, N-(2-((3-cyano-4-(trimethylsilyl)phenyl)amino)-1-(4-(methoxymethyl)phenyl)-2-oxoethyl)-5-oxopyrrolidine-3-carboxamide], for which the inhibition at 1 µM in assay [1] was determined as 103%; in assay [2] it was 99.5%. The inhibition at 3 µM in assay [3] (Jurkat) is 97.6%.

With `COCc1ccc([C@@H](NC(=O)CCC(=O)O)C(=O)Nc2cc(F)c([Si](C)(C)C)c(F)c2)cc1` [Example 108, 4-(((1R)-2-((3,5-difluoro-4-(trimethylsilyl)phenyl)amino)-1-(4-(methoxymethyl)phenyl)-2-oxoethyl)amino)-4-oxobutanoic acid], the inhibition at 1 µM in assay [1] is 100%; in assay [2] it was 95.3%. The inhibition at 3 µM in assay [3] (Jurkat) worked out at 99.7%.

On to `COCc1ccc([C@@H](NC(=O)CNC(C)=O)C(=O)Nc2ccc([Si](C)(C)C)c(F)c2)cc1` [Example 86, N^2-acetyl-N-((1R)-2-((3-fluoro-4-(trimethylsilyl)phenyl)amino)-1-(4-(methoxymethyl)phenyl)-2-oxoethyl)glycinamide], for which the figures for the inhibition at 1 µM in assay [1] and in assay [2] were 102% and 95.2%, respectively. In assay [3] (Jurkat), the inhibition at 3 µM came to 99.1%.

As for `COCc1ccc(C(C(=O)Nc2cc(F)c([Si](C)(C)C)c(F)c2)N(C)C(=O)c2cc(O)no2)cc1` (stereo not drawn) [Example 38, N-(2-((3,5-difluoro-4-(trimethylsilyl)phenyl)amino)-1-(4-(methoxymethyl)phenyl)-2-oxoethyl)-3-hydroxy-N-methyl-1,2-oxazole-5-carboxamide], the inhibition at 1 µM in assay [1] amounted to 102%; in assay [2], 99.7%. Also, the inhibition at 3 µM in assay [3] (Jurkat) is 100%.

As to `COCc1ccc([C@@H](NC(=O)CC(C)(C)C(=O)O)C(=O)Nc2cc(F)c([Si](C)(C)C)c(F)c2)cc1` [Example 103, 4-(((1R)-2-((3,5-difluoro-4-(trimethylsilyl)phenyl)amino)-1-(4-(methoxymethyl)phenyl)-2-oxoethyl)amino)-2,2-dimethyl-4-oxobutanoic acid], the inhibition at 1 µM in assay [1] stood at 102%; in assay [2], 96.2%. Besides, the inhibition at 3 µM in assay [3] (Jurkat) was 100%.

On to `COCc1ccc([C@@H](NC(=O)CN2CCOCC2)C(=O)Nc2ccc([Si](C)(C)C)c(F)c2)cc1` [Example 97, (2R)—N-(3-fluoro-4-(trimethylsilyl)phenyl)-2-(4-(methoxymethyl)phenyl)-2-((morpholin-4-ylacetyl)amino)acetamide hydrochloride], for which the inhibition at 1 µM in assay [1] came to 102%; in assay [2], 93.6%. Moreover, in assay [3] (Jurkat), the inhibition at 3 µM was determined as 98.3%.

Consider `CN(C(=O)c1cc(O)no1)C(C(=O)Nc1cc(F)c([Si](C)(C)C)c(F)c1)C1CCOCC1` (stereo not drawn) [Example 6, N-(2-((3,5-difluoro-4-(trimethylsilyl)phenyl)amino)-2-oxo-1-(tetrahydro-2H-pyran-4-yl)ethyl)-3-hydroxy-N-methyl-1,2-oxazole-5-carboxamide], for which the inhibition at 1 µM in assay [1] turned out to be 102%; in assay [2], 99.4%. In addition, in assay [3] (Jurkat), the inhibition at 3 µM was determined as 101%.

As for `COCc1ccc([C@@H](NC(=O)Cc2nnc(C)o2)C(=O)Nc2cc(F)c([Si](C)(C)C)cc2F)cc1` [Example 56, (2R)—N-(2,5-difluoro-4-(trimethylsilyl)phenyl)-2-(4-(methoxymethyl)phenyl)-2-(((5-methyl-1,3,4-oxadiazol-2-yl)acetyl)amino)acetamide], the values for the inhibition at 1 µM in assay [1] and in assay [2] were 102% and 97.7%, respectively. Further, in assay [3] (Jurkat), the inhibition at 3 µM is 100%.

In the case of `COCc1ccc([C@@H](NC(=O)C2CC(F)(F)C2)C(=O)Nc2ccc([Si](C)(C)C)c(F)c2)cc1` [Example 91, 3,3-difluoro-N-((1R)-2-((3-fluoro-4-(trimethylsilyl)phenyl)amino)-1-(4-(methoxymethyl)phenyl)-2-oxoethyl)cyclobutanecarboxamide], the figures for the inhibition at 1 µM in assay [1] and in assay [2] were 102% and 94.6%, respectively. Moreover, the inhibition at 3 µM in assay [3] (Jurkat) worked out at 98%.

Consider `COCc1ccc([C@@H](NC(=O)Cc2cc(O)no2)C(=O)Nc2cc(F)c([Si](C)(C)C)c(F)c2)cc1` [Example 76, (2R)—N-(3,5-difluoro-4-(trimethylsilyl)phenyl)-2-(((3-hydroxy-1,2-oxazol-5-yl)acetyl)amino)-2-(4-(methoxymethyl)phenyl)acetamide], for which the figures for the inhibition at 1 µM in assay [1] and in assay [2] were 103% and 98.5%, respectively. Further, the inhibition at 3 µM in assay [3] (Jurkat) came to 99.3%.

For the compound `COCc1ccc([C@@H](NC(=O)Cn2cnccc2=O)C(=O)Nc2cc(F)c([Si](C)(C)C)cc2F)cc1` [Example 57, (2R)—N-(2,5-difluoro-4-(trimethylsilyl)phenyl)-2-(4-(methoxymethyl)phenyl)-2-(((6-oxopyrimidin-1(6H)-yl)acetyl)amino)acetamide], the inhibition at 1 µM in assay [1] was found to be 103%; in assay [2] it was 97.3%. For the same compound, the inhibition at 3 µM in assay [3] (Jurkat) was 98.9%.

Turning to `COCc1ccc(C(NC(=O)N2CC(O)C2)C(=O)Nc2ccc([Si](C)(C)C)c(F)c2)cc1` (stereo not drawn) [Example 34, N-(2-((3-fluoro-4-(trimethylsilyl)phenyl)amino)-1-(4-(methoxymethyl)phenyl)-2-oxoethyl)-3-hydroxyazetidine-1-carboxamide], the inhibition at 1 µM was 101% in assay [1] and 98.9% in assay [2]. Also, the inhibition at 3 µM in assay [3] (Jurkat) came out at 99.2%.

For `COCc1ccc([C@@H](NC(=O)C2CC2(F)F)C(=O)Nc2ccc([Si](C)(C)C)c(F)c2)cc1` (stereo partly drawn) [Example 84, 2,2-difluoro-N-((1R)-2-((3-fluoro-4-(trimethylsilyl)phenyl)amino)-1-(4-(methoxymethyl)phenyl)-2-oxoethyl)cyclopropanecarboxamide], the inhibition at 1 µM in assay [1] amounted to 101%; in assay [2] it was 94.4%. Besides, the inhibition at 3 µM in assay [3] (Jurkat) was determined as 100%.

For `COCc1ccc([C@@H](NC(=O)CO)C(=O)Nc2ccc([Si](C)(C)C)c(F)c2)cc1` [Example 85, (2R)—N-(3-fluoro-4-(trimethylsilyl)phenyl)-2-(glycoloylamino)-2-(4-(methoxymethyl)phenyl)acetamide], the inhibition at 1 µM in assay [1] amounted to 103%; in assay [2] it was 90.1%. The inhibition at 3 µM in assay [3] (Jurkat) was 99%.

Take `COc1ccc(C(NC(=O)Cc2ccc(=O)[nH]c2)C(=O)Nc2ccc([Si](C)(C)C)cc2)cc1` (stereo not drawn) [Example 16, 2-(4-methoxyphenyl)-2-(((6-oxo-1,6-dihydropyridin-3-yl)acetyl)amino)-N-(4-(trimethylsilyl)phenyl)acetamide]: the inhibition at 1 µM in assay [1] is 102%; in assay [2] it was 81.9%. Further, the inhibition at 3 µM in assay [3] (Jurkat) was 93.2%.

Take `COCc1ccc([C@@H](NC(=O)[C@H]2CNC(=O)C2)C(=O)Nc2ccc(C(C)(C)C)c(F)c2)cc1` [Example 102, (3R)—N-((1R)-2-((4-tert-butyl-3-fluorophenyl)amino)-1-(4-(methoxymethyl)phenyl)-2-oxoethyl)-5-oxopyrrolidine-3-carboxamide]: the results for the inhibition at 1 µM in assay [1] and in assay [2] were 100% and 83.8%, respectively. Moreover, in assay [3] (test compound 3 μM, Jurkat cells), the inhibition at 3 µM was 97.8%.
